Source: US6723747B2, “Substituted 6H-DiBenzo[c,h]chromenes as estrogenic agents” (Wyeth, priority 2001, dated 2004)
pIC50: −log10 of the molar value.

Key:
[1] = target: T1, human ERβ (Homo sapiens, UniProt Q92731); test: Radioligand binding competition with [3H]-17β-estradiol, ERβ; conditions: human ERβ ligand binding domain, read-out: ER-β IC50
T1 construct: M214-Q530 of human ERβ; Flag (C); made in house; host or cells: E. coli BL21(DE3), clarified lysate

[2] = test system: HLA-B27 rats; test: HLA rat test procedure for inflammatory bowel disease; assay type: in vivo; conditions: for stool character, group's average score: 10 mg/kg oral daily, 3=diarrhea, 2=soft, 1=normal stool
Protocol: Representative compounds of the invention were evaluated in the HLA rat standard pharmacological test procedure which emulates inflammatory bowel disease in humans. The following briefly describes the procedure used and results obtained. Male HLA-B27 rats were obtained from Taconic and provided unrestricted access to food (PMI Lab diet 5001) and water. Rats were dosed once daily (orally) with either vehicle (2% tween-80/0.5% methylcellulose) or Example 1d (10 mg/kg) for 26 days. Stool quality was observed daily and graded according to the following scale: Diarrhea=3; soft stool=2; normal stool=1. […] At the end of the study, serum was collected and stored at −70° C. A section of colon was prepared for histological analysis and an additional segment was analyzed for myeloperoxidase activity.
Histological analysis. Colonic tissue was immersed in 10% neutral buffered formalin. Each specimen of colon was separated into four samples for evaluation. The formalin-fixed tissues were processed in a Tissue Tek vacuum infiltration processor (Miles, Inc; West Haven, Conn.) for paraffin embedding. The samples were sectioned at 5 μm and then stained with hematoxylin and eosin (H&E) for blinded histologic evaluations using a scale modified after Boughton-Smith. After the scores were completed the samples were unblinded, and data were tabulated and analyzed by ANOVA linear modeling with multiple mean comparisons. Sections of colonic tissue were evaluated for several disease indicators and given relative scores.

[3] = test system: Lewis rats; test: Lewis rat adjuvant-induced arthritis, inhibition test procedure; assay type: in vivo; conditions: 10 mg/kg sc daily from Day 1

T1 sequence (Q92731 214-530): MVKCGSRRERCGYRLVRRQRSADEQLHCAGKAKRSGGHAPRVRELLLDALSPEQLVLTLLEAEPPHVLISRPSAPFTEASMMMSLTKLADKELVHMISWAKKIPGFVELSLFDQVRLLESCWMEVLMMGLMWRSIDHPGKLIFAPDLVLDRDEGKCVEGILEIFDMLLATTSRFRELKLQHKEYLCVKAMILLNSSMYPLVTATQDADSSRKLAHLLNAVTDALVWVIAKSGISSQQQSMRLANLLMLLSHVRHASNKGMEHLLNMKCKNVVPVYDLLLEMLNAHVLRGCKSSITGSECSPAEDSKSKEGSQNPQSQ

Compound: N#Cc1cc2c(c3ccc(O)cc13)OCc1cc(O)ccc1-2 [Example 1d, 2,8-Dihydroxy-6H-dibenzo[c,h]chromene-12-carbonitrile]
- pIC50 [1]: 8.74
- stool quality ([2]; 10 mg/kg orally once daily for 26 days): stool quality improved
- stool character, group's average score ([2]; day 1, vehicle 1): 1
- stool character, group's average score ([2]; day 2, vehicle 1): 1
- stool character, group's average score ([2]; day 3, vehicle 1): 1
- stool character, group's average score ([2]; day 4, vehicle 1.25): 1
- stool character, group's average score ([2]; day 5, vehicle 2.5): 1.5
- stool character, group's average score ([2]; day 6, vehicle 2.75): 1.25
- stool character, group's average score ([2]; day 7, vehicle 2.75): 1.25
- stool character, group's average score ([2]; day 8, vehicle 2.75): 1
- stool character, group's average score ([2]; day 9, vehicle 3): 1.25
- stool character, group's average score ([2]; day 10, vehicle 3): 1
- stool character, group's average score ([2]; day 11, vehicle 2.75): 1.25
- stool character, group's average score ([2]; day 12, vehicle 2.75): 1.25
- stool character, group's average score ([2]; day 13, vehicle 2.75): 1.25
- stool character, group's average score ([2]; day 14, vehicle 2.75): 1.25
- stool character, group's average score ([2]; day 15, vehicle 2.75): 1
- stool character, group's average score ([2]; day 16, vehicle 3): 1
- stool character, group's average score ([2]; day 17, vehicle 2.75): 1
- stool character, group's average score ([2]; day 18, vehicle 2.75): 1
- stool character, group's average score ([2]; day 19, vehicle 2.75): 1
- stool character, group's average score ([2]; day 22, vehicle 3): 1
- stool character, group's average score ([2]; day 23, vehicle 3): 1
- stool character, group's average score ([2]; day 24, vehicle 3): 1
- stool character, group's average score ([2]; day 25, vehicle 3): 1
- stool character, group's average score ([2]; day 26, vehicle 3): 1
- measurements of tissue injury in colon ([2]; histological analysis, 10 mg/kg orally): effective in reducing several measurements of tissue injury
- Fibrosis (0-2), colon histological score, mean ± SD ([2]; treated orally for 4 weeks, 10 mg/kg, vehicle 1.06 ± 0.32): 0.13 ± 0.14
- Ulceration (0-2), colon histological score, mean ± SD ([2]; treated orally for 4 weeks, 10 mg/kg, vehicle 1.44 ± 0.66): 0.19 ± 0.13
- Lesion depth (0-2), colon histological score, mean ± SD ([2]; treated orally for 4 weeks, 10 mg/kg, vehicle 1.56 ± 0.63): 0.19 ± 0.13
- Inflammation (0-3), colon histological score, mean ± SD ([2]; treated orally for 4 weeks, 10 mg/kg, vehicle 2.88 ± 0.14): 1.38 ± 0.43
- Total score, colon histological score, mean ± SD ([2]; treated orally for 4 weeks, 10 mg/kg, vehicle 6.94 ± 1.51): 1.88 ± 0.14
- joint inflammation score (maximal score per day 12) ([3]; day 1, vehicle 0.00): 0.00
- joint inflammation score (maximal score per day 12) ([3]; day 2, vehicle 0.00): 0.00
- joint inflammation score (maximal score per day 12) ([3]; day 3, vehicle 4.50): 2.66
- joint inflammation score (maximal score per day 12) ([3]; day 4, vehicle 5.50): 1.83
- joint inflammation score (maximal score per day 12) ([3]; day 5, vehicle 9.33): 2.66
- joint inflammation score (maximal score per day 12) ([3]; day 6, vehicle 10.50): 2.16
- joint inflammation score (maximal score per day 12) ([3]; day 7, vehicle 10.60): 2.00
- joint inflammation score (maximal score per day 12) ([3]; day 8, vehicle 11.00): 1.66
- joint inflammation score (maximal score per day 12) ([3]; day 9, vehicle 11.50): 2.00
- joint inflammation score (maximal score per day 12) ([3]; day 10, vehicle 11.33): 2.00
- joint inflammation score (maximal score per day 12) ([3]; day 11, vehicle 10.83): 1.66
- joint inflammation score (maximal score per day 12) ([3]; day 12, vehicle 10.83): 1.66
- joint inflammation score (maximal score per day 12) ([3]; day 13, vehicle 11.00): 2.16
- joint inflammation score (maximal score per day 12) ([3]; day 14, vehicle 11.00): 2.00
- joint inflammation score (maximal score per day 12) ([3]; day 15, vehicle 11.00): 2.00
- joint inflammation score (maximal score per day 12) ([3]; day 16, vehicle 11.00): 1.00
- joint inflammation score (maximal score per day 12) ([3]; day 17, vehicle 10.50): 1.33
- melting point: > 250 °C
